Converted amounts (≈) assume the structure as drawn. Read-outs that look alike come from different tables or passages of the source.
Key:
[1] = system: Human red blood cells (hRBCs); test: Hemolytic activity; assay type: cell-based; conditions: 1 h at 37° C., printed in the HD50 column
Procedure: (§1) Procedure for measurements of hemolytic activity: Human red blood cells (hRBCs) were washed multiple times with phosphate-buffered saline (PBS) until a clear supernatant was obtained. The hRBCs suspension was made in PBS with a Packed Cell Volume of 5%, Two-fold serial dilutions (50 μL) of oligomers in sterile water (pH adjusted between 7.4 and 7.7 with HCl and NaOH solutions) were mixed with hRBCs suspension (50 μL) in clear polystyrene optical-bottom 96-well plates which were filmed and incubated for 1 h at 37° C. A 1/1 vv hRBCs solution/PBS mixture was used a negative control and a 1/1 vv hRBCs solution/1% (TRIS 50 mM pH=8.0+1% SDS) mixture was used a positive control for 100% hemolysis. The mixture was then centrifuged at 1500 g for 10 min at 5° C. Next, 50 μL of the supernatant was transferred into a second plate, and the absorbance was read at 490 nm using a BioRad iMark plate reader. The hemolysis percentage was calculated by the formula % hemolysis=[Absorbance (sample)−Absorbance (negative control)]/[Absorbance (positive control)−Absorbance (negative control)]×100%. Each assay was performed in a double duplicate. Hemolytic activity was determined or estimated with the Hemolytic Concentration leading to 50% of lysis of hRBCs (HC50).

[2] = system: Candida albicans ATCC10231; assay type: cell-based; conditions: for Minimal inhibitory concentration (MIC) C. albicans ATCC10231: ATCC10231, 48 h
Procedure: (§2) Minimal inhibitory concentration (MIC) values and minimal bactericidal concentration (MBCs) values for ATC-peptides 1-9 were determined against both Gram-positive (Bacillus subtilis, Staphylococcus aureus, Enterococcus faecalis) and Gram negative (Escherichia coli, Pseudomonas aeruginosa) bacteria as well as a yeast (Candida albicans). Experiments were conducted in triplicate. For B. subtilis, compounds were tested against vegetative cells and spores, which are particularly resistant to the action of antimicrobial agents. MIC and MBCs values are shown Table 12. In addition, haemolytic properties of 1-9 were tested.
(§3) the antimicrobial performances of oligomers antimicrobial activity were determined on three Gram positive strains (Bacillus subtilis ATCC6633, Staphylococcus aureus ATCC6538 and Enterococcus faecalis ATCC29121), two Gram negative strains (Escherichia coli ATCC8739 and Pseudomonas aeruginosa ATCC9027) and one fungal strain (Candida albicans ATCC10231). Each bacterial strain was allowed to grow overnight on Trypto-Caseine-Soja agar (TSA, Difco) at 37° C., C. albicans was allowed to grow 48 h on a sabouraud medium (Difco) at 20-25° C. A fresh suspension at 10^8 CFU·mL^−1 was then prepared by inoculating the micro-organisms in a Tryptone-Sel solution. Concentration was monitored by measuring transmitted light at 620 nm or with the Mac Farland turbidity standard (Mac Farland=0.5≈10^8 CFU·mL^−1). Each suspension was then diluted in a doubly strong Mueller-Hinton (MH, Difco) broth to […]. Two-fold serial dilutions (100 μL) of oligomers in sterile water (pH adjusted between 7.4 and 7.7 with HCl and NaOH solutions) were mixed with microbial inoculum (100 μL) in NUNC sterile clear polystyrene flat-bottom 96-well plates. A 1/1 v/v oligomer solution/water mixture was used a negative control and a 1/1 vv water/microbial inoculum mixture was used a positive control. Plates were then incubated 24 h at 37° C. for bacteria and 48 h at 25° C. for C. albicans. Minimum Inhibitory Concentration (MIC) was determined as the lowest concentration inhibiting the growth of each micro-organism. […] Minimum Bactericidal Concentration (MBC) was determined as the lowest concentration that prevent the growth of more than one colony. Each assay was performed in a triple duplicate for each strain.

[3] = system: Enterococcus faecalis ATCC29121; assay type: cell-based; conditions: for Minimal inhibitory concentration (MIC) E. faecalis ATCC29121: ATCC29121, 24 h
Procedure: as §2, §3

[4] = system: Pseudomonas aeruginosa ATCC9027; assay type: cell-based; conditions: for Minimal inhibitory concentration (MIC) P. aeruginosa ATCC9027: ATCC9027, 24 h
Procedure: as §2, §3

[5] = system: Staphylococcus aureus ATCC6538; assay type: cell-based; conditions: for Minimal inhibitory concentration (MIC) S. aureus ATCC6538: ATCC6538, 24 h
Procedure: as §2, §3

[6] = system: Escherichia coli ATCC8739; assay type: cell-based; conditions: for Minimal inhibitory concentration (MIC) E. coli ATCC8739: ATCC8739, 24 h
Procedure: as §2, §3

[7] = system: Bacillus subtilis ATCC6633; assay type: cell-based; conditions: for Minimal inhibitory concentration (MIC) B. subtilis ATCC6633: ATCC6633, 24 h
Procedure: as §2, §3

E. coli [8] = assay type: cell-based, Escherichia coli; conditions: 2 h
Procedure: FIG. 17 represents a graphic showing the results of a time-kill study of oligomer 9 on E. coli over 2 h incubation at 37° C.
(§4) Surface electron microscopy (SEM) experiments: oligomer 9 was evaluated for its impact on E. coli morphology by surface electron microscopy (SEM). In order to define the best incubation period to observed antimicrobial effects, time-kill study was conducted over 2 h incubation at 37° C. […] Significant decrease of the growth rate was observed between 40 to 60 min at 4× and 8×MIC. TEM experiments were performed after 60 min contact between bacteria cells and compound 9. […] In addition, whereas there were no fragments for control untreated bacteria, numerous spherical elements whose diameters were lower than 0.1 μm were observed around bacteria, the number of which increasing with the peptide concentration. Despite some dispersion in size, such fragments, probable microsomes, were classically reported with other AMPs associated with membrane permeation and/or depolarization. [M. Hartmann, M. Berditsch J. Hawecker, F. Ardakani, D. Gerthsen, A. S. Ulrich, Antimicrob. Agents Chemother. 2010, 54, 3132-3142 b/ E. Duval, C, Zatylny, M. Laurencin, M. Baudy-Floc'h, J. Henry, Peptides 2009, 30, 1608-1612.]

Hemolytic activity = assay type: cell-based, Human; conditions: human, human red blood cell suspension; hRBCs, 1 h at 37° C.; read-out: HD50, dose required to lyse 50% of the red blood cells
Procedure: as §1

E. coli [9] = test: Surface electron microscopy (SEM) of bacterial morphology; assay type: cell-based, Escherichia coli; conditions: after 60 min incubation with 8×MIC; untreated about 2.0 μm
Procedure: FIG. 18 represents electronic microscopy photos. A/, B/ and C/ SEM micrographs untreated E. coli on glass platelets. In isotonic medium the cells are long, intact and evenly shaped.
FIG. 19 represents SEM micrographs untreated E. coli after 60 min incubation with 8×MIC of 9.
as §4, with “1608-1612.] […]” for “1608-1612.]”

[10] = value in bracket, 24 h at 37° C.

SMILES | HD10 [1] | Minimal inhibitory concentration (MIC) C. albicans ATCC10231 [2] | Minimal inhibitory concentration (MIC) E. faecalis ATCC29121 [3] | Minimal inhibitory concentration (MIC) P. aeruginosa ATCC9027 [4] | Minimal inhibitory concentration (MIC) S. aureus ATCC6538 [5] | Minimal inhibitory concentration (MIC) E. coli ATCC8739 [6] | Minimal inhibitory concentration (MIC) B. subtilis ATCC6633 [7] | average log reduction of the viable cell count (E. coli [8]) | average log reduction of the viable cell count (E. coli [8]; 8) | HC50 at 1 h (Hemolytic activity) | Minimal bactericidal concentration (MBC) C. albicans ATCC10231 ([2]; value in bracket, 48 h at 25° C.) | Minimal bactericidal concentration (MBC) E. faecalis ATCC29121 [3, 10] | Minimal bactericidal concentration (MBC) P. aeruginosa ATCC9027 [4, 10] | Minimal bactericidal concentration (MBC) S. aureus ATCC6538 [5, 10] | Minimal bactericidal concentration (MBC) E. coli ATCC8739 [6, 10] | Minimal bactericidal concentration (MBC) B. subtilis ATCC6633 [7, 10] | length of E. coli cells (E. coli [9])
CC(=O)N[C@@H](CCCCN)c1nc(C)sc1C(=O)N[C@@H](C)c1nc(C)sc1C(=O)N[C@@H](C)c1nc(CCCCN)sc1C(=O)N[C@@H](C)c1nc(C)sc1C(=O)N[C@@H](C)c1nc(CCCCN)sc1C(=O)N[C@@H](CCCCN)c1nc(C)sc1C(=O)N[C@@H](C)c1nc(CCCCN)sc1C(=O)N[C@@H](CCCCN)c1nc(C)sc1C(=O)N[C@@H](C)c1nc(C)sc1C(=O)N[C@@H](C)c1nc(C)sc1C(=O)N[C@@H](C)c1nc(CCCCN)sc1C(=O)N[C@@H](CCCCN)c1nc(C)sc1C(N)=O [Oligomer 5] | 62.5 µM | 50 µM (≈ 127 µg/mL) | >150 µM | 100 µM (≈ 253 µg/mL) | 100 µM (≈ 253 µg/mL) | 5.2 µM (≈ 13.2 µg/mL) | 0.8 µM (≈ 2.03 µg/mL) |  |  |  |  |  |  |  |  |  | 
CC(=O)N[C@@H](CCCNC(=N)N)c1nc(C)sc1C(=O)N[C@@H](C)c1nc(CCCNC(=N)N)sc1C(=O)N[C@@H](C)c1nc(C)sc1C(=O)N[C@@H](CCCNC(=N)N)c1nc(C)sc1C(=O)N[C@@H](C)c1nc(CCCNC(=N)N)sc1C(=O)N[C@@H](C)c1nc(C)sc1C(=O)N[C@@H](CCCNC(=N)N)c1nc(C)sc1C(=O)N[C@@H](C)c1nc(CCCNC(=N)N)sc1C(=O)N[C@@H](C)c1nc(C)sc1C(=O)N[C@@H](CCCNC(=N)N)c1nc(C)sc1C(=O)N[C@@H](C)c1nc(CCCNC(=N)N)sc1C(=O)N[C@@H](C)c1nc(C)sc1C(N)=O [Oligomer 9] |  | 6.2 µM (≈ 17.1 µg/mL) | 20.8 µM (≈ 57.4 µg/mL) | 4.2 µM (≈ 11.6 µg/mL) | 3.1 µM (≈ 8.55 µg/mL) | 1.8 µM (≈ 4.97 µg/mL) | 0.6 µM (≈ 1.66 µg/mL) | 0.95 log10 cfu/ml | 4.73 log10 cfu/ml | > 100 µM | (6.2) μM | (25) μM | (4.7) μM | (7.8) μM | (2.3) μM | (0.8) μM | ≥ 1.3 μm

From patent US20220242905A1, “MODIFIED PEPTIDES AND THEIR USE” (UNIVERSITE DE MONTPELLIER, priority 2018, published 2022)
